Reference: DBAASP
Converted amounts (≈) assume the structure as drawn.

Experiments:
Assay in all cases: ≥ marks a high value that may be exact or a test limit, other limits are often not marked, values filed in µg/mL are converted to µM
[1] = test system: Acinetobacter baumannii ATCC 19606
[2] = test system: Acinetobacter baumannii Q13-0717
[3] = test system: Campylobacter jejuni ATCC 33292
[4] = test system: Campylobacter jejuni NCTC 11161
[5] = test system: Campylobacter jejuni NCTC 11351
Campylobacter jejuni = test system: Campylobacter jejuni
[6] = test system: Enterococcus faecalis JH-2-2
Escherichia coli K-12 = test system: Escherichia coli K-12
Escherichia coli = test system: Escherichia coli
[7] = test system: Klebsiella pneumoniae ATCC 700603
[8] = test system: Klebsiella pneumoniae NCTC 13442
[9] = test system: Klebsiella pneumoniae Q14-0095
[10] = test system: Klebsiella pneumoniae Q14-0285
[11] = test system: Listeria monocytogenes NCTC 11994
[12] = test system: Pseudomonas aeruginosa ATCC 27853
[13] = test system: Pseudomonas aeruginosa PAO1
[14] = test system: Pseudomonas aeruginosa Q12-0535
[15] = test system: Pseudomonas aeruginosa Q14-0208
[16] = test system: Pseudomonas aeruginosa Q14-0890
[17] = test system: Salmonella typhimurium SL1344
[18] = test system: Staphylococcus aureus ATCC 33591
[19] = test system: Staphylococcus aureus ATCC 6538
[20] = test system: Staphylococcus aureus MRSA-15
[21] = test system: Staphylococcus aureus NCTC 12493
[22] = test system: Staphylococcus aureus RN4220
[23] = test system: Staphylococcus aureus USA 300

Structure (SMILES): CC[C@H](C)[C@H](NC(=O)[C@H](CCCCN)NC(=O)[C@H](CO)NC(=O)[C@H](Cc1c[nH]c2ccccc12)NC(=O)[C@H](CCCN=C(N)N)NC(=O)[C@H](CC(N)=O)NC(=O)[C@H](CCCN=C(N)N)NC(=O)[C@H](CCCN=C(N)N)NC(=O)[C@@H]1CCCN1C(=O)[C@@H](N)CC(C)C)C(=O)N[C@@H](Cc1c[nH]c2ccccc12)C(=O)N[C@@H](CCCCN)C(=O)N[C@@H](CCCCN)C(=O)N[C@H](C(=O)N[C@H](C(=O)N[C@H](C(=O)N[C@H](C(=O)N[C@@H](Cc1ccccc1)C(=O)N[C@@H](CO)C(=O)O)C(C)C)[C@@H](C)O)C(C)C)C(C)C [LPRRNRWSKIWKKVVTVFS]
- MIC [1]: 9.42 µM (≈ 22.6 µg/mL)
- MIC [2]: 1.67 µM (≈ 4 µg/mL)
- MIC [3]: 1.67 µM (≈ 4 µg/mL)
- MIC [4]: 1.67 µM (≈ 4 µg/mL)
- MIC [5]: 26.7 µM (≈ 64 µg/mL)
- MIC (Campylobacter jejuni): 26.7 µM (≈ 64 µg/mL)
- MIC [6]: 13.3 µM (≈ 32 µg/mL)
- MIC (Escherichia coli K-12): 13.3 µM (≈ 32 µg/mL)
- MIC (Escherichia coli): 26.7 µM (≈ 64 µg/mL)
- MIC [7]: 6.66 µM (≈ 16 µg/mL)
- MIC [8]: 6.66 µM (≈ 16 µg/mL)
- MIC [9]: 13.3 µM (≈ 32 µg/mL)
- MIC [10]: 6.66 µM (≈ 16 µg/mL)
- MIC [11]: 13.3 µM (≈ 32 µg/mL)
- MIC [12]: 26.7 µM (≈ 64 µg/mL)
- MIC [13]: 13.3 µM (≈ 32 µg/mL)
- MIC [14]: 26.7 µM (≈ 64 µg/mL)
- MIC [15]: 6.66 µM (≈ 16 µg/mL)
- MIC [16]: 13.3 µM (≈ 32 µg/mL)
- MIC [17]: 13.3 µM (≈ 32 µg/mL)
- MIC [18]: 6.66 µM (≈ 16 µg/mL)
- MIC [19]: 13.3 µM (≈ 32 µg/mL)
- MIC [20]: 13.3 µM (≈ 32 µg/mL)
- MIC [21]: 6.66 µM (≈ 16 µg/mL)
- MIC [22]: 13.3 µM (≈ 32 µg/mL)
- MIC [23]: 3.33 µM (≈ 8 µg/mL)
